Results as given in ChEMBL document CHEMBL1201862, “PubChem BioAssay data set” (2004).
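The compound was tested at five concentrations on cells cultured in 96-well plates, with a 48-hour exposure period. GI50 = concentration required for 50% inhibition of growth.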 Active and inactive are the calls of the source. Cut-off read from the data, not from the text of the source: active = GI50 up to about 1.1 µM and inactive = higher.

What was measured:
Assay in all cases: NCI anticancer screen, dose series, 48 h
OVCAR-3 = tested on: OVCAR-3
HL-60 = tested on: HL-60
A549 = tested on: A549
HCT-116 = tested on: HCT-116
NCI-H226 = tested on: NCI-H226
NCI-H23 = tested on: NCI-H23
NCI/ADR-RES = tested on: NCI/ADR-RES
T47D = tested on: T47D
TK-10 = tested on: TK-10
UACC-62 = tested on: UACC-62
MDA-MB-231 = tested on: MDA-MB-231
SK-MEL-5 = tested on: SK-MEL-5
KM12 = tested on: KM12
COLO 205 = tested on: COLO 205
SF-539 = tested on: SF-539
PC-3 = tested on: PC-3
HCC 2998 = tested on: HCC 2998
K562 = tested on: K562
RXF 393 = tested on: RXF 393
SK-MEL-2 = tested on: SK-MEL-2

Measured: GI50

CN(C)S(=O)(=O)/N=C/c1cccc(/C=N/S(=O)(=O)N(C)C)c1
inactive: OVCAR-3 > 100 µM | HL-60 > 100 µM | A549 > 100 µM | HCT-116 33.3 µM | NCI-H226 > 100 µM | NCI-H23 > 100 µM | NCI/ADR-RES 81.7 µM | T47D > 100 µM | TK-10 > 100 µM | UACC-62 > 100 µM | MDA-MB-231 > 100 µM | SK-MEL-5 55.1 µM | KM12 > 100 µM | COLO 205 65.9 µM | SF-539 23.9 µM | PC-3 > 100 µM | HCC 2998 > 100 µM | K562 52.4 µM

N#CC12C(=O)N3C(=NC(c4ccccc4)NC3c3ccccc3)C1(C#N)C(c1ccccc1)NC1=C2CCCC1 (stereo not drawn)
inactive: RXF 393 > 100 µM | OVCAR-3 > 100 µM | HL-60 > 100 µM | A549 > 100 µM | HCT-116 > 100 µM | NCI-H226 > 100 µM | NCI-H23 > 100 µM | NCI/ADR-RES > 100 µM | T47D > 100 µM | TK-10 > 100 µM | UACC-62 > 100 µM | SK-MEL-2 > 100 µM | MDA-MB-231 > 100 µM | SK-MEL-5 > 100 µM | KM12 > 100 µM | COLO 205 > 100 µM | PC-3 > 100 µM | HCC 2998 > 100 µM | K562 > 100 µM

O=C(C=P(c1ccccc1)(c1ccccc1)c1ccccc1)c1ccc(-c2ccc(F)cc2F)cc1
inactive: RXF 393 2.64 µM | OVCAR-3 1.95 µM | HL-60 2.43 µM | A549 2.73 µM | HCT-116 2.87 µM | NCI-H226 2.43 µM | NCI-H23 3.22 µM | NCI/ADR-RES 3.09 µM | T47D 2.33 µM | TK-10 2.2 µM | UACC-62 1.85 µM | MDA-MB-231 2.1 µM | SK-MEL-5 1.84 µM | KM12 3.42 µM | COLO 205 1.64 µM | SF-539 2.88 µM | PC-3 3.38 µM | HCC 2998 2.08 µM | K562 2.18 µM

O=[N+]([O-])c1ccc(C2=NOC(c3ccccc3)N2C23CC4CC(CC(C4)C2)C3)cc1 (stereo not drawn)
inactive: OVCAR-3 23.5 µM | HL-60 26.6 µM | A549 32.9 µM | HCT-116 22.1 µM | NCI-H226 30.5 µM | NCI-H23 41 µM | NCI/ADR-RES 35.8 µM | T47D 25.7 µM | TK-10 37.2 µM | UACC-62 20.8 µM | SK-MEL-2 16.4 µM | MDA-MB-231 31.4 µM | SK-MEL-5 22.2 µM | KM12 27.4 µM | COLO 205 30 µM | SF-539 54 µM | PC-3 20.5 µM | HCC 2998 39 µM | K562 19.1 µM

NC(=O)NC1C(c2ccccc2)=C1c1ccccc1
inactive: RXF 393 3.41 µM | OVCAR-3 28.9 µM | HL-60 31.6 µM | A549 27.4 µM | HCT-116 15.7 µM | NCI-H226 5.08 µM | NCI-H23 21.2 µM | NCI/ADR-RES 10.5 µM | T47D 69.5 µM | TK-10 18 µM | UACC-62 9.23 µM | MDA-MB-231 12.6 µM | SK-MEL-5 11.1 µM | KM12 19.2 µM | COLO 205 13 µM | SF-539 15.4 µM | PC-3 17.1 µM | HCC 2998 16.5 µM | K562 15.4 µM

O=C(/C=C/c1ccc(F)c(F)c1)OCCc1ccccc1
inactive: OVCAR-3 > 100 µM | HL-60 > 100 µM | A549 > 100 µM | HCT-116 74.5 µM | NCI-H226 > 100 µM | NCI-H23 72.9 µM | NCI/ADR-RES > 100 µM | T47D 72.4 µM | TK-10 > 100 µM | UACC-62 > 100 µM | SK-MEL-2 > 100 µM | MDA-MB-231 > 100 µM | SK-MEL-5 38.5 µM | KM12 > 100 µM | COLO 205 > 100 µM | SF-539 > 100 µM | PC-3 > 100 µM | HCC 2998 > 100 µM | K562 51.3 µM

C=C1CC(C)(COc2cc(=O)oc3ccccc23)OC1=O (stereo not drawn)
inactive: OVCAR-3 3.96 µM | HL-60 1.17 µM | A549 14 µM | HCT-116 2.71 µM | NCI-H226 10.3 µM | NCI-H23 3.87 µM | NCI/ADR-RES 3.35 µM | T47D 2.48 µM | TK-10 1.77 µM | UACC-62 2.48 µM | SK-MEL-2 2.51 µM | MDA-MB-231 7.38 µM | SK-MEL-5 5.33 µM | KM12 8.02 µM | COLO 205 2.03 µM | SF-539 3.96 µM | PC-3 4.11 µM | HCC 2998 25.2 µM | K562 2 µM

C(=N\Nc1nnc(-c2nnc(N/N=C/c3ccccc3)o2)o1)/c1ccccc1
inactive: RXF 393 > 10 µM | OVCAR-3 > 10 µM | HL-60 > 10 µM | A549 > 10 µM | HCT-116 > 10 µM | NCI-H226 > 10 µM | NCI-H23 > 10 µM | NCI/ADR-RES > 10 µM | T47D > 10 µM | TK-10 > 10 µM | UACC-62 > 10 µM | MDA-MB-231 > 10 µM | SK-MEL-5 > 10 µM | KM12 > 10 µM | COLO 205 > 10 µM | SF-539 > 10 µM | PC-3 > 10 µM | HCC 2998 > 10 µM | K562 > 10 µM

O=c1cc(CSc2c(-c3ccccc3)c(=O)n(-c3ccccc3)c(=S)n2-c2ccccc2)[nH]c(=O)[nH]1
inactive: RXF 393 > 100 µM | OVCAR-3 > 100 µM | HL-60 > 100 µM | A549 > 100 µM | HCT-116 > 100 µM | NCI/ADR-RES > 100 µM | T47D > 100 µM | TK-10 > 100 µM | UACC-62 > 100 µM | SK-MEL-2 > 100 µM | MDA-MB-231 > 100 µM | SK-MEL-5 > 100 µM | KM12 > 100 µM | COLO 205 > 100 µM | SF-539 > 100 µM | PC-3 > 100 µM | HCC 2998 > 100 µM | K562 > 100 µM

O=C(/C=C/c1cc(O)c(O)cc1O)OCCc1ccccc1
inactive: OVCAR-3 10.3 µM | HL-60 1.3 µM | A549 > 67.8 µM | HCT-116 > 41.7 µM | NCI-H226 35.6 µM | NCI-H23 24.2 µM | NCI/ADR-RES 27.2 µM | T47D 4.4 µM | TK-10 6.11 µM | UACC-62 17.9 µM | SK-MEL-2 20.8 µM | MDA-MB-231 23.5 µM | SK-MEL-5 18.7 µM | KM12 62.4 µM | COLO 205 11.2 µM | SF-539 18.6 µM | PC-3 17.3 µM | HCC 2998 > 72.1 µM | K562 2.28 µM
